According to patent US20060004002A1 (priority 2004, published 2006):
Like-named read-outs stand apart in the source and are kept apart here.

How the values were obtained:
[1] = biological target: T1, Recombinant human Src (Homo sapiens, UniProt P12931); test: Src tyrosine kinase activity assay with poly E4Y and 32P-ATP; assay type: biochemical
T1 construct: made in house; host or cells: baculovirus-insect cell system
Protocol: (§1) Recombinant human Src was expressed using the baculovirus-insect cell system and purified as published (Budde et al., 1993 and 2000). Recombinant Csk and the FGF receptor (FGFr) were expressed as […] fusion proteins using the pGEX expression vector and E. coli, and purified as described (Sun & Budde, 1995).
(§2) The tyrosine kinase activity of Src, Csk and FGFr was determined using poly E4Y and ^32P-ATP. Briefly, enzymes were assayed in a reaction mixture […] consisting of 0.15 M EPPS-NaOH (pH 8.0) with 6 mM MgCl2, 0.2 mM γ^32P-ATP (0.2-0.4 mCi/μmol), 10% glycerol, 0.1% Triton X-100, and poly E4Y. Poly E4Y is a synthetic peptide whose phosphorylation is measured in this assay by the addition of the radioactively labeled phosphate from the ATP (Budde et al., 1995). […] When ATP was varied (0, 50, 100 and 250 μM), poly E4Y was kept constant at 150 μg/ml.

[2] = biological target: T2, Recombinant Csk (Homo sapiens, UniProt P41240); test: Csk tyrosine kinase activity assay with poly E4Y and 32P-ATP; assay type: biochemical; conditions: NI = no inhibition
T2 construct: GST ('glutathione-5-transferase' [sic]); made in house; host or cells: E. coli (pGEX expression vector)
T2 sequence (P41240 whole entry, species assumed): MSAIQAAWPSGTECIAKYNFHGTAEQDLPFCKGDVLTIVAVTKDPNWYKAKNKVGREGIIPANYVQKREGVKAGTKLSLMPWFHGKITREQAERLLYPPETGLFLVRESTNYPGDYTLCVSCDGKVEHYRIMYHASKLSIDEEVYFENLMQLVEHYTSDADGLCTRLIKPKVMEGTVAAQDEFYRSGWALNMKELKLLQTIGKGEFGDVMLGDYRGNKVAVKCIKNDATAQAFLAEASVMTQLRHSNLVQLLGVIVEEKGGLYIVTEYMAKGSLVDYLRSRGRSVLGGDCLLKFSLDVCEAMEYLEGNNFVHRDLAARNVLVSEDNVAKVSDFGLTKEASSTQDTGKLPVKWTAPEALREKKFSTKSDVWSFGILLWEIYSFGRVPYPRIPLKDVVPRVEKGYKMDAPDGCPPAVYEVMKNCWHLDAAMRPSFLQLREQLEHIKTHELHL
Protocol: as §1, §2

[3] = poly E4Y, 32P-ATP, NI = no inhibition, read-out: IC50 Value Src
[4] = especially good inhibitors of Src, screening assay 50 μg/ml poly E4Y, 0.2 mM ATP, read-out: IC50 (inhibitors of Src)

T1 sequence (P12931 whole entry): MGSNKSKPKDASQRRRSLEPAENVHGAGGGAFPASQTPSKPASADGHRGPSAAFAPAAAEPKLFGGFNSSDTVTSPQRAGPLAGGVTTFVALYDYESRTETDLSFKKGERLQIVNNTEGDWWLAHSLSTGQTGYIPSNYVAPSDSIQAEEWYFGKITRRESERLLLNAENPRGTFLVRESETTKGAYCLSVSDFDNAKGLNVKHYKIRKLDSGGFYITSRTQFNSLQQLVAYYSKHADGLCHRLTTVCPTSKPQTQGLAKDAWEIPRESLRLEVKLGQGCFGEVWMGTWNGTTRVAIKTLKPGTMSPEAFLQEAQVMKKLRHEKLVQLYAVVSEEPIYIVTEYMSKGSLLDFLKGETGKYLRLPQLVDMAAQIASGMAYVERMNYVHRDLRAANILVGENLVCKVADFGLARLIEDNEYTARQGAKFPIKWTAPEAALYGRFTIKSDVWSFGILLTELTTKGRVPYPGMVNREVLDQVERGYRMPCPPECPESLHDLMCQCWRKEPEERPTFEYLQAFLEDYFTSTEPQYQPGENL

Structure (SMILES) | IC50 [1, 3] | IC50 [2] | IC50 [1, 4]
CCOc1ccccc1-c1sc2c(NN=Cc3cccc(O)c3)ncnc2c1C#N [compound 103] | 1.5 nM | 13000 nM | –
COc1ccc(C=NNc2ncnc3c(C)c(-c4ccc(N(C)C)cc4)sc23)cc1O [Compound 42, 3-Hydroxy-4-methoxybenzaldehyde (6-(4-N,N-dimethylaminophenyl)-7-methylthieno[3,2-d]pyrimidin-4-yl)hydrazone] | 72 nM | 460 nM | ≤ 2000 nM
CCOc1ccccc1-c1sc2c(NN=Cc3ccncc3)ncnc2c1O [Compound 112, 4-Pyridinecarboxaldehyde (6-(2-ethoxyphenyl)-7-hydroxythieno[3,2-d]pyrimidin-4-yl)hydrazone] | 4 nM | 7200 nM | –
C=Cc1c(-c2ccccc2OCC)sc2c(NN=Cc3ccc(OC)c(O)c3)ncnc12 [Compound 34, 3-Hydroxy-4-methoxybenzaldehyde (6-(2-ethoxyphenyl)-7-vinylthieno[3,2-d]pyrimidin-4-yl)hydrazone] | 39 nM | 1350 nM | ≤ 2000 nM
COc1ccc(C=NNc2ncnc3c(C#N)c(-c4ccc(N)cc4)sc23)cc1O [compound 59] | 16 nM | 10000 nM | –
CCOc1ccccc1-c1sc2c(NN=Cc3ccc(C(=O)O)cc3)ncnc2c1C#N [compound 68] | 1.4 nM | 26000 nM | –
CCOc1ccccc1-c1sc2c(NN=Cc3ccc(OCCN4CCOCC4)c(OC)c3)ncnc2c1C [Compound 54, 3-Methoxy-4-(2-(morpholin-4-yl)-ethoxy)-benzaldehyde (6-(2-ethoxyphenyl)-7-methylthieno[3,2-d]pyrimidin-4-yl)hydrazone] | 1.4 nM | 110000 nM | –
CCOc1ccccc1-c1sc2c(NN=Cc3[nH]cnc3C)ncnc2c1O [Compound 117, 4-Methyl-5-imidazolecarboxaldehyde (6-(2-ethoxyphenyl)-7-hydroxythieno[3,2-d]pyrimidin-4-yl)hydrazone] | 5 nM | 5500 nM | –
CCOc1ccccc1-c1sc2c(NN=Cc3cccc(O)c3)ncnc2c1O [Compound 105, 3-Hydroxybenzaldehyde (6-(2-ethoxyphenyl)-7-hydroxythieno[3,2-d]pyrimidin-4-yl)hydrazone] | 4.3 nM | 900 nM | ≤ 2000 nM
COc1ccc(C=NNc2ncnc3c(C)c(-c4ccccc4O)sc23)cc1O [Compound 84, 3-Hydroxy-4-methoxybenzaldehyde (6-(2-hydroxyphenyl)-7-methylthieno[3,2-d]pyrimidin-4-yl)hydrazone] | 180 nM | 500000 nM | –
COc1ccc(C=NNc2ncnc3c(C)c(-c4ccc(NC(C)=O)cc4)sc23)cc1O [Compound 43, 3-Hydroxy-4-methoxybenzaldehyde (6-(4-N-acetylaminophenyl)-7-methythieno[3,2-d]pyrimidin-4-yl)hydrazone] | 12 nM | 112000 nM | –
CCOc1ccccc1-c1sc2c(NN=Cc3cc(OC)c(O)c(OC)c3)ncnc2c1O [Compound 96, 3,5-Dimethoxy-4-hydroxybenzaldehyde (6-(2-ethoxyphenyl)-7-hydroxythieno[3,2-d]pyrimidin-4-yl)hydrazone] | 0.73 nM | 580 nM | ≤ 2000 nM
CCOc1ccccc1-c1sc2c(NN=Cc3ccco3)ncnc2c1O [Compound 121, 2-Furancarboxaldehyde (6-(2-ethoxyphenyl)-7-hydroxythieno[3,2-d]pyrimidin-4-yl)hydrazone] | 6 nM | 5000 nM | –
Cc1c(-c2cccc(C(N)=NO)c2)sc2c(NN=Cc3cccnc3)ncnc12 [Compound 49, 3-Pyridinecarboxaldehyde (6-(N-hydroxy-benzamidin-3-yl)-7-methylthieno[3,2-d]pyrimidin-4-yl)hydrazone] | 4.1 nM | 124000 nM | –
COc1ccc(C=NNc2ncnc3c(C)c(-c4cccc(C(N)=NO)c4)sc23)cc1O [Compound 45] | 19 nM | 26800 nM | –
Cc1c(-c2ccc(N)cc2)sc2c(NN=Cc3cccs3)ncnc12 [Compound 9, 2-Thiophenecarboxaldehyde (6-(4-aminophenyl)-7-methylthieno[3,2-d]pyrimidin-4-yl)hydrazone] | 19 nM | – | –
CCOc1ccccc1-c1sc2c(NN=Cc3ccoc3)ncnc2c1C#N [compound 127] | 3 nM | – | –
CCOc1ccccc1-c1sc2c(NN=Cc3ccco3)ncnc2c1C#N [compound 119] | 4.7 nM | – | –
CCOc1ccccc1-c1sc2c(NN=Cc3ccc(NC(C)=O)cc3)ncnc2c1C#N [compound 130] | 1.8 nM | – | –
Cc1c(-c2cccc(N)c2)sc2c(NN=Cc3cccnc3)ncnc12 [Compound 11, 3-Pyridinecarboxaldehyde (6-(3-aminophenyl)-7-methylthieno[3,2-d]pyrimidin-4-yl)hydrazone] | 4.9 nM | – | –
CCOc1ccccc1-c1sc2c(NN=Cc3cc(OC)c(O)c(OC)c3)ncnc2c1C [Compound 65, 3,5-Dimethoxy-4-hydroxybenzaldehyde (6-(2-ethoxyphenyl)-7-methylthieno[3,2-d]pyrimidin-4-yl)hydrazone] | 0.99 nM | – | –
CCOCc1c(-c2ccccc2OCC)sc2c(NN=Cc3ccc(OC)c(O)c3)ncnc12 [Compound 44] | 79 nM | – | –

Structure (SMILES) | IC50 [1, 3] | IC50 [2] | IC50 [1, 4]
CCOc1cc(F)ccc1-c1sc2c(NN=Cc3ccc(OC)c(O)c3)ncnc2c1C [Compound 57, 3-Hydroxy-4-methoxybenzaldehyde (6-(2-ethoxy-4-fluorophenyl)-7-methylthieno[3,2-d]pyrimidin-4-yl)hydrazone] | 4.9 nM | – | –
CCOc1ccccc1-c1sc2c(NN=Cc3ccc(C)s3)ncnc2c1C#N [compound 126] | 4.9 nM | – | –
COc1ccc(C=NNc2ncnc3c(C)c(-c4ccc(C(N)=O)cc4)sc23)cc1O [Compound 23, 3-Hydroxy-4-methoxybenzaldehyde (6-(4-aminocarbonylphenyl)-7-methylthieno[3,2-d]pyrimidin-4-yl)hydrazone] | 20 nM | – | –
CCOc1ccccc1-c1sc2c(NN=Cc3ncc[nH]3)ncnc2c1C#N [compound 95] | 25 nM | – | –
CCNc1ccc(-c2sc3c(NN=Cc4ccc(OC)c(O)c4)ncnc3c2C)cc1 [Compound 48, 3-Hydroxy-4-methoxybenzaldehyde (6-(4-N-ethylaminophenyl)-7-methylthieno[3,2-d]pyrimidin-4-yl)hydrazone] | 64 nM | – | –
COc1ccc(C=NNc2ncnc3c(C)c(-c4ccc(O)cc4)sc23)cc1O [Compound 38, 3-Hydroxy-4-methoxybenzaldehyde (6-(4-hydroxyphenyl)-7-methylthieno[3,2-d]pyrimidin-4-yl)hydrazone] | 15 nM | – | –
CCOc1cc(F)ccc1-c1sc2c(NN=Cc3cccs3)ncnc2c1C#N [compound 108] | 8.5 nM | – | –
CCOc1ccccc1-c1sc2c(NN=Cc3ccccc3Cl)ncnc2c1C [Compound 77, 2-Chlorobenzaldehyde (6-(2-ethoxyphenyl)-7-methylthieno[3,2-d]pyrimidin-4-yl)hydrazone] | 1400 nM | – | –
CCOc1ccccc1-c1sc2c(NN=Cc3ccc(OC)c(OCCN(CC)CC)c3)ncnc2c1C (single isomer, unassigned) [Compound 158] | 0.015 nM | – | –
Cc1c(-c2ccc(CN)cc2)sc2c(NN=Cc3cccnc3)ncnc12 [Compound 3, 3-Pyridinecarboxaldehyde (6-(4-aminomethyl)phenyl-7-methylthieno[3,2-d]pyrimidin-4-yl)hydrazone] | 24 nM | – | –
Cc1c(-c2ccc(O)cc2)sc2c(NN=Cc3cccnc3)ncnc12 [Compound 75, 3-Pyridinecarboxaldehyde (6-(4-hydroxyphenyl)-7-methylthieno[3,2-d]pyrimidin-4-yl]hydrazone] | 21 nM | – | –
CCOc1cc(F)ccc1-c1sc2c(NN=Cc3cccs3)ncnc2c1CO [Compound 107, 2-Thiophenecarboxaldehyde (6-(2-ethoxy-4-fluorophenyl)-7-hydroxymethylthieno[3,2-d]pyrimidin-4-yl)hydrazone] | 55 nM | – | –
CCOc1ccccc1-c1sc2c(NN=Cc3ccc(OC)c(O)c3)ncnc2c1C#N [compound 47] | 1.5 nM | – | –
CCOc1ccccc1-c1sc2c(NN=Cc3ccc(O)c(Cl)c3)ncnc2c1C#N [compound 90] | 2.1 nM | – | –
CCOc1ccccc1-c1sc2c(NN=Cc3ccc4c(c3)OCCO4)ncnc2c1C [Compound 66, 2,3-Dihydro-benzo[1,4]dioxine-6-carbaldehyde (6-(2-ethoxyphenyl)-7-methylthieno[3,2-d]pyrimidin-4-yl)hydrazone] | 6.4 nM | – | –
CCOc1ccccc1-c1sc2c(NN=Cc3sccc3C)ncnc2c1C#N [compound 122] | 5.2 nM | – | –
CCOc1ccccc1-c1sc2c(NN=Cc3cc(O)c(OC)c(OC)c3)ncnc2c1C#N [compound 98] | 1 nM | – | –
CCOc1ccccc1-c1sc2c(NN=Cc3ccc(O)cc3)ncnc2c1C#N [compound 102] | 1.5 nM | – | –
CCOc1ccccc1-c1sc2c(NN=Cc3ccc(OC)c(O)c3)ncnc2c1CC [compound 35] | 14 nM | – | –
Cc1c(CN2CCOCC2)sc2c(NN=Cc3cccnc3)ncnc12 [Compound 15, 3-Pyridinecarboxaldehyde (7-methyl-6-(morpholin-4-yl)methyllthieno[3,2-d]pyrimidin-4-yl)hydrazone] | 320 nM | – | –
CCOc1ccccc1-c1sc2c(NN=Cc3ccc(O)c(OC)c3)ncnc2c1C#N [compound 86] | 1.4 nM | – | –
